{
  "source": "paper PMC3183052",
  "about": "“Immunoprotectivity of HLA-A2 CTL Peptides Derived from Respiratory Syncytial Virus Fusion Protein in HLA-A2 Transgenic Mouse” (PLoS ONE, 2011)",
  "key": {"[1]": {"test_system": "splenocytes from HLA-A*0201 transgenic C57BL/6 mice", "assay": "IL-2 ELISPOT of splenocytes restimulated with peptide", "assay_type": "cell-based, mouse", "summary_of_the_method": "(§1)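 HLA-A*0201 transgenic C57BL/6 mice primed and boosted intranasally 20 days apart with 1×10^7 pfu rAd-F0 or 1×10^4 live RSV B1; splenocytes taken 10 days post-boost. Splenocytes restimulated 48 h at 37°C with 2 µg individual RSV F 9-mer peptides; spots counted, expressed per 5×10^5 splenocytes.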"}, "IL-13": {"test_system": "IL-13", "assay": "Lung IL-13 expression by real-time RT-PCR after RSV challenge", "assay_type": "in vivo, mouse", "conditions": "peptide in IFA s.c. twice, day 4 post challenge, normalized to GAPDH, six mice per group", "experimental": "To screen the immunodominance of epitopic peptide in the induction of RSV-F specific Th1/Th2 expression, HLA-A*0201 transgenic C57BL/6 mice were anesthetized with isoflurane and immunized with 1×10^7 pfu/50 µL of rAd-F0 or rAd-LacZ or 1×10^4 live RSV B1 via the intranasal (i.n.) route. Twenty days later, the mice were given booster immunization i.n. with the same dose. After 10 days of boost, mice were sacrificed and splenocytes were isolated for the cytokine ELISPOT assay. […] Mice body weight was monitored daily.\nLung RNA (5 µg) was mixed with 10 nmole random primers and 2 units of […] reverse transcriptase (Invitrogen) and incubated at 94°C for 10 minutes, 37°C for 30 minutes, and then at 4°C. The resulting cDNA was subjected to quantitative PCR analysis (The LightCycler® 480 Real-Time PCR system) with RSV N specific primer pairs, forward: 5′-[…]-3′ and reverse: 5′-[…]-3′. Expression of mouse GAPDH gene in the tested samples was detected as internal control by using specific primer pairs, forward: 5′-[…]-3′ and reverse: 5′-[…]-3′. The number of cycles (Ct) required for the amplification of the N gene and GAPDH was calculated. The relative expression of the N gene was calculated as followed: the individual Ct (RSV N) obtained from peptide- or vehicle-immunized lung was normalized by the respective Ct (GAPDH), and then [drawing 3] was divided by the mean of [drawing 4] . […]"}, "[2]": {"test_system": "splenocytes from HLA-A*0201 transgenic C57BL/6 mice", "assay": "IFN-γ ELISPOT of splenocytes restimulated with peptide", "assay_type": "cell-based, mouse", "summary_of_the_method": "as §1"}, "[3]": {"conditions": "splenocytes of HLA-Tg B6 mice primed and boosted i.n. with 10^4 pfu RSV-B1, restimulated with 2 µg peptide, representative of two experiments, five mice per group"}, "[4]": {"conditions": "splenocytes of HLA-Tg B6 mice primed and boosted i.n. with 10^7 pfu rAd-F0, restimulated with 2 µg peptide, representative of two experiments, five mice per group"}, "[5]": {"conditions": "splenocytes of rAd-F0- or RSV B1-primed and boosted HLA-Tg B6 mice, high = over 100 spots, moderate = over 50 spots"}},
  "data": [
    {"sequence": "YMLTNSELL [peptide 14, HLA-A*0201-restricted 9-mer synthetic peptide from F protein of RSV-B1 strain]", "values": [
      {"measurement": "IL-2 ELISPOT, RSV", "setting": "[1]; [3]", "value": "34.5 cytokine-secreting cells per 5×10^5 splenocytes"},
      {"measurement": "IL-2 ELISPOT, rAd-F0", "setting": "[1]; [4]", "value": "200 cytokine-secreting cells per 5×10^5 splenocytes"},
      {"measurement": "IL-2 level in restimulated splenocytes (ELISPOT, text grading)", "setting": "[1]; [5]", "value": "over 100 spots"},
      {"measurement": "lung IL-13 expression vs vehicle", "setting": "IL-13", "value": "normal expression"},
      {"measurement": "IFN-γ ELISPOT, RSV", "setting": "[2]; [3]", "value": "97 cytokine-secreting cells per 5×10^5 splenocytes"},
      {"measurement": "IFN-γ ELISPOT, rAd-F0", "setting": "[2]; [4]", "value": "200 cytokine-secreting cells per 5×10^5 splenocytes"},
      {"measurement": "IFN-γ level in restimulated splenocytes (ELISPOT, text grading)", "setting": "[2]; [5]", "value": "over 100 spots"}
    ]}
  ]
}
